Results reported in US8431563B2 (priority 2010, dated 2013).
Read-outs that look alike come from different tables or passages of the source.

Legend:
[1] = biological target: T1, interaction between glucokinase (GK) and glucokinase regulatory protein (GKRP) (Homo sapiens, UniProt Q14397); test: biochemical; assay type: binding
T1 sequence (Q14397 1-625): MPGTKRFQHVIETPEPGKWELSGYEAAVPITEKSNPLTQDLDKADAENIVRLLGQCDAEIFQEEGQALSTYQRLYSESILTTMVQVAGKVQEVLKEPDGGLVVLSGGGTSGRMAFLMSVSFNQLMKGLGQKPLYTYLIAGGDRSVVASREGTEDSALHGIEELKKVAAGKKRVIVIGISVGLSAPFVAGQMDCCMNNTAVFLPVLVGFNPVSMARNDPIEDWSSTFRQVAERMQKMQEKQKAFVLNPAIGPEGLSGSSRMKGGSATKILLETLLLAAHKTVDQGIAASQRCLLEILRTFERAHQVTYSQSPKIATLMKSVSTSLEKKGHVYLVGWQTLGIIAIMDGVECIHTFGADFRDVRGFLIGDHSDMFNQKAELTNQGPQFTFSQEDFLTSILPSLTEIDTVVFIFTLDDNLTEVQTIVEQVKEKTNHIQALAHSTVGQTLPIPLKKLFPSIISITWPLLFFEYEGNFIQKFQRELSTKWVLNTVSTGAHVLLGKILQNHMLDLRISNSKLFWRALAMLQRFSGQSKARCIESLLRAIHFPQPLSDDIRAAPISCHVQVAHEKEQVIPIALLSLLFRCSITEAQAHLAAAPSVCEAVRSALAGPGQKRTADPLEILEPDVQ
How it was run: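 Measures direct GK–GKRP binding in 20 mM Tris pH 7.5 containing 1 μM sorbitol-6-phosphate, 0.05% BSA and 1 mM DTT. Compound and avi-tagged GKRP sit 20 min at room temperature before GK-fluorescein addition (6 nM in the added buffer); read after 2 h dark incubation at room temperature.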

[2] = biological target: T2, GKRP (Glucokinase Regulatory Protein) with human His-hepatic GK (Homo sapiens, UniProt Q14397); test: biochemical
T2 sequence (Q14397 1-625): T1 sequence (Q14397 1-625)
How it was run: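 Product formation, 13C-glucose-6-phosphate from 13C-glucose, was measured directly by LC MS/MS after acetonitrile quench. The GK reaction ran 30 min at room temperature in Tris pH 7.5 buffer with 4 mM MgCl2 and 6% DMSO. The 5× enzyme stock was 30 nM His-tagged human hepatic glucokinase.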

[3] = avi-tagged GKRP, GK-fluorescein, AlphaScreen beads, read-out: GK-GKRP IC50 (Binding)
[4] = 13C-glucose-6-phosphate formation, 280 nM GKRP (10×), 30 nM GK (5×), read-out: GK-GKRP EC50 (LC MS/MS-2)

C[C@H]1CN(S(=O)(=O)c2ccc(N)s2)CCN1c1ncc(C(C)(O)C(F)(F)F)cn1 (mixture of isomers) [Example 137, 2-(2-((2S)-4-((5-amino-2-thiophenyl)sulfonyl)-2-methyl-1-piperazinyl)-5-pyrimidinyl)-1,1,1-trifluoro-2-propanol]
IC50 ([1]; GK-GKRP IC50 (Binding)): 281 nM | EC50 ([2]; GK-GKRP EC50 (LC MS/MS-2)): 658 nM

C[C@H]1CN(S(=O)(=O)c2ccccc2N)CCN1c1ccc(C(O)(C(F)(F)F)C(F)(F)F)cc1 [Example 168, 2-(4-((2S)-4-((2-aminophenyl)sulfonyl)-2-methyl-1-piperazinyl)phenyl)-1,1,1,3,3,3-hexafluoro-2-propanol]
IC50 [1, 3]: 660 nM | EC50 [2, 4]: 533 nM

CC(O)(c1ccc(N2CCN(S(=O)(=O)c3cccs3)C[C@@H]2CN(CC2CCC2)S(C)(=O)=O)cc1)C(F)(F)F (mixture of isomers) [Example 218, N-(cyclobutylmethyl)-N-(((2S)-4-(2-thiophenylsulfonyl)-1-(4-(2,2,2-trifluoro-1-hydroxy-1-methylethyl)phenyl)-2-piperazinyl)methyl)methanesulfonamide]
IC50 [1, 3]: 24 nM | EC50 [2, 4]: 17 nM

CC(C)CN(C[C@H]1CN(S(=O)(=O)c2cccs2)CCN1c1ccc(C(C)(O)C(F)(F)F)cc1)S(C)(=O)=O (mixture of isomers) [Example 201, N-(2-methylpropyl)-N-(((2S)-4-(2-thiophenylsulfonyl)-1-(4-(2,2,2-trifluoro-1-hydroxy-1-methylethyl)phenyl)-2-piperazinyl)methyl)methanesulfonamide]
IC50 [1, 3]: 4 nM | EC50 [2, 4]: 14 nM

CC1(COC[C@H]2CN(S(=O)(=O)c3cccs3)CCN2c2ccc(C(C)(O)C(F)(F)F)cc2)COC1 (mixture of isomers) [Example 117, 1,1,1-trifluoro-2-(4-((2R)-2-(((3-methyl-3-oxetanyl)methoxy)methyl)-4-(2-thiophenylsulfonyl)-1-piperazinyl)phenyl)-2-propanol]
IC50 [1, 3]: 467 nM | EC50 [2, 4]: 463 nM

CC(O)(c1ccc(N2CCN(S(=O)(=O)c3cccs3)C[C@@H]2CN2[C@@H]3COC[C@H]2CC(=O)C3)cc1)C(F)(F)F (single isomer, unassigned) [Example 106 Peak#1]
IC50 [1, 3]: 52 nM | EC50 [2, 4]: 88 nM

CC(O)(c1ccc(N2CCN(S(=O)(=O)c3cccs3)C[C@@H]2CSc2cccc(F)c2)cc1)C(F)(F)F (mixture of isomers) [Example 188, 1,1,1-trifluoro-2-(4-((2R)-2-(((3-fluorophenyl)sulfanyl)methyl)-4-(2-thiophenylsulfonyl)-1-piperazinyl)phenyl)-2-propanol]
IC50 [1, 3]: 112 nM | EC50 [2, 4]: 43 nM

CC(O)(c1ccc(N2CCN(S(=O)(=O)c3cccs3)C[C@@H]2CNC2CCOCC2)cc1)C(F)(F)F (mixture of isomers) [Example 120, 1,1,1-trifluoro-2-(4-((2S)-2-((tetrahydro-2H-pyran-4-ylamino)methyl)-4-(2-thiophenylsulfonyl)-1-piperazinyl)phenyl)-2-propanol]
IC50 [1, 3]: 493 nM | EC50 ([2]; GK-GKRP EC50 (LC MS/MS-2), 13C-glucose-6-phosphate formation, 280 nM GKRP (10×), 30 nM GK (5×)): 656 nM

COC1C[C@H]2COC[C@@H](C1)N2C[C@H]1CN(S(=O)(=O)c2cccs2)CCN1c1ccc(C(C)(O)C(F)(F)F)cc1 (stereo partly drawn) [Example 109, 1,1,1-trifluoro-2-(4-((2S)-2-(((1R,5S)-7-methoxy-3-oxa-9-azabicyclo[3.3.1]non-9-yl)methyl)-4-(2-thiophenylsulfonyl)-1-piperazinyl)phenyl)-2-propanol (endo)]
IC50 [1, 3]: 72 nM | EC50 [2, 4]: 81 nM

O=S(=O)(c1cccs1)N1CCN(c2ncc(C(O)(C(F)(F)F)C(F)(F)F)cn2)[C@@H](CN2C3COCC2C(O)C3)C1 (stereo partly drawn) [Example 79, 8-(((2S)-4-(2-thiophenylsulfonyl)-1-(5-(2,2,2-trifluoro-1-hydroxy-1-(trifluoromethyl)ethyl)-2-pyrimidinyl)-2-piperazinyl)methyl)-3-oxa-8-azabicyclo[3.2.1]octan-6-ol]
IC50 [1, 3]: 39 nM | EC50 [2, 4]: 58 nM

CC(C)CS(=O)(=O)NC[C@H]1CN(S(=O)(=O)c2cccs2)CCN1c1ccc(C(C)(O)C(F)(F)F)cc1 (mixture of isomers) [Example 210, 2-methyl-N-(((2S)-4-(2-thiophenylsulfonyl)-1-(4-(2,2,2-trifluoro-1-hydroxy-1-methylethyl)phenyl)-2-piperazinyl)methyl)-1-propanesulfonamide]
IC50 [1, 3]: 507 nM | EC50 [2, 4]: 249 nM

CC(O)(c1ccc(N2CCN(S(=O)(=O)c3cccs3)C[C@@H]2CNC2COC2)cc1)C(F)(F)F (mixture of isomers) [Example 206, 1,1,1-trifluoro-2-(4-((2S)-2-((3-oxetanylamino)methyl)-4-(2-thiophenylsulfonyl)-1-piperazinyl)phenyl)-2-propanol]
IC50 [1, 3]: 248 nM | EC50 [2, 4]: 343 nM

O=S(=O)(c1cccs1)N1CCN(c2ncc(C(O)(C(F)(F)F)C(F)(F)F)cn2)[C@@H](CN2C3COCC2C(O)C3)C1 (single isomer, unassigned) [Example 79 Peak #1]
IC50 [1, 3]: 49 nM | EC50 [2, 4]: 50 nM

CC(O)(c1ccc(N2CCN(S(=O)(=O)c3cccs3)C[C@@H]2CN2[C@@H]3COC[C@H]2CC(=O)C3)cc1)C(F)(F)F (single isomer, unassigned) [Example 106 Peak#2]
IC50 [1, 3]: 61 nM | EC50 [2, 4]: 142 nM

CC(O)(c1ccc(N2CCN(S(=O)(=O)c3cccs3)C[C@@H]2CN2CCOCC2c2ccc(F)cc2)cc1)C(F)(F)F (single isomer, unassigned) [Example 115 Peak #1]
IC50 [1, 3]: 589 nM | EC50 [2, 4]: 308 nM

CC(O)(c1ccc(N2CCN(S(=O)(=O)c3ccc(N)nc3)C[C@@H]2CC2CCOCC2)cc1)C(F)(F)F (mixture of isomers) [Example 127, 2-(4-((2S)-4-((6-amino-3-pyridinyl)sulfonyl)-2-(tetrahydro-2H-pyran-4-ylmethyl)-1-piperazinyl)phenyl)-1,1,1-trifluoro-2-propanol]
IC50 [1, 3]: 55 nM | EC50 [2, 4]: 58 nM

CC(O)(c1ccc(N2CCN(S(=O)(=O)c3cccs3)C[C@@H]2CSc2ccccc2F)cc1)C(F)(F)F (mixture of isomers) [Example 219, 1,1,1-trifluoro-2-(4-((2R)-2-(((2-fluorophenyl)sulfanyl)methyl)-4-(2-thiophenylsulfonyl)-1-piperazinyl)phenyl)-2-propanol]
IC50 [1, 3]: 14 nM | EC50 [2, 4]: 25 nM

CC(O)(c1ccc(N2CCN(S(=O)(=O)c3cccs3)C[C@@H]2CN2CCC(=O)CC2)cc1)C(F)(F)F (mixture of isomers) [Example 144, 1-(((2S)-4-(2-thiophenylsulfonyl)-1-(4-(2,2,2-trifluoro-1-hydroxy-1-methylethyl)phenyl)-2-piperazinyl)methyl)-4-piperidinone]
IC50 [1, 3]: 564 nM | EC50 [2, 4]: 831 nM

CC(O)(c1ccc(N2CCN(S(=O)(=O)c3ccc(N)s3)CC2)cc1)C(F)(F)F (racemic) [Example 90, 2-(4-(4-((5-amino-2-thiophenyl)sulfonyl)-1-piperazinyl)phenyl)-1,1,1-trifluoro-2-propanol]
IC50 [1, 3]: 448 nM | EC50 [2, 4]: 836 nM

C[C@H]1COCCN1C[C@H]1CN(S(=O)(=O)c2nccs2)CCN1c1ccc(C(C)(O)C(F)(F)F)cc1 (mixture of isomers) [Example 102, 1,1,1-trifluoro-2-(4-((2S)-2-(((3S)-3-methyl-4-morpholinyl)methyl)-4-(1,3-thiazol-2-ylsulfonyl)-1-piperazinyl)phenyl)-2-propanol]
IC50 [1, 3]: 134 nM | EC50 [2, 4]: 137 nM

CC(O)(c1ccc(N2CCN(S(=O)(=O)c3cccs3)C[C@@H]2CN(C2CC2)S(C)(=O)=O)cc1)C(F)(F)F (mixture of isomers) [Example 200, N-cyclopropyl-N-(((2R)-4-(2-thiophenylsulfonyl)-1-(4-(2,2,2-trifluoro-1-hydroxy-1-methylethyl)phenyl)-2-piperazinyl)methyl)methanesulfonamide]
IC50 [1, 3]: 26 nM | EC50 [2, 4]: 39 nM

O=S(=O)(c1cccs1)N1CCN(c2ncc(C(O)(C(F)(F)F)C(F)(F)F)cn2)[C@@H](CN2C3COCC2C(O)C3)C1 (single isomer, unassigned) [Example 79 Peak #2]
IC50 [1, 3]: 32 nM | EC50 [2, 4]: 73 nM

Cn1cnc(COC[C@H]2CN(S(=O)(=O)c3cccs3)CCN2c2ccc(C(C)(O)C(F)(F)F)cc2)c1 (mixture of isomers) [Example 119, 1,1,1-trifluoro-2-(4-((2R)-2-(((1-methyl-1H-imidazol-4-yl)methoxy)methyl)-4-(2-thiophenylsulfonyl)-1-piperazinyl)phenyl)-2-propanol]
IC50 [1, 3]: 392 nM | EC50 [2, 4]: 169 nM
